Values quoted from earlier work as cited in US20240299301A1, “LIPID NANOPARTICLES AND METHOD FOR PREPARING SAME” (THERNA THERAPEUTICS, priority 2021, published 2024).

Question: For `CCCCC/C=C\C/C=C\CCCCCCCCC(CCCCCCCC/C=C\C/C=C\CCCCC)OC(=O)CCCN(C)C` [DLin-MC3-DMA, (6Z, 9Z, 28Z, 31Z)-heptatriaconta 6,9,28,31-tetraen-19-yl 4-(dimethylamino)butanoate], which “pKa of the amine group” value is on record?
Answer: about 6.5
